Columns and labels:
Type in all cases: in vivo
rice (Oryra sativa) = experiment: Test B flooded paddy test; details: Oryza sativa, 250 g ai/ha, Flood; 0 to 100 scale where 0 is no effect and 100 is complete control; read-out: Rice plant response rating
Procedure, shortened: (§1)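 Compound goes directly into floodwater once pots are flooded 3 cm above soil, targeting plants at two leaves; the water depth is then held for the test duration. Plants sit 13–15 d in a greenhouse and are rated visually, 100 denoting complete control.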

[1] = tested on: barnyardgrass (Echinochloa crus-galli); experiment: Test B flooded paddy test; details: Echinochloa crus-galli, 250 g ai/ha, Flood; 0 to 100 scale where 0 is no effect and 100 is complete control; read-out: Barnyardgrass plant response rating
Procedure, shortened: as §1

[2] = tested on: ducksalad (Heteranthera limosa); experiment: Test B flooded paddy test; details: Heteranthera limosa, 250 g ai/ha, Flood; 0 to 100 scale where 0 is no effect and 100 is complete control; read-out: Ducksalad plant response rating
Procedure, shortened: as §1

[3] = tested on: sedge, umbrella (small-flower umbrella sedge, Cyperus difformis); experiment: Test B flooded paddy test; details: Cyperus difformis, 250 g ai/ha, Flood; 0 to 100 scale where 0 is no effect and 100 is complete control; read-out: Sedge, Umbrella plant response rating
Procedure, shortened: as §1

[4] = tested on: blackgrass (Alopecurus myosuroides); experiment: Test A postemergence; details: Alopecurus myosuroides, post-emergence, 240 h, postemergence
Procedure, shortened: (§2)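 Treatment is preemergence as a directed soil spray after planting, or postemergence at the one- to two-leaf stage, with test chemical in a non-phytotoxic solvent mixture plus surfactant. Plants stay in the greenhouse about 10 d before visual injury scoring on a 0 to 100 scale versus untreated controls.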

[5] = tested on: pigweed (Amaranthus retroflexus); experiment: Test A postemergence; details: Amaranthus retroflexus, post-emergence, 240 h, postemergence
Procedure, shortened: as §2

corn (Zea mays) = experiment: Test A postemergence; details: Zea mays, post-emergence, 240 h, postemergence
Procedure, shortened: as §2

[6] = tested on: wheat (Triticum aestivum); experiment: Test A postemergence; details: Triticum aestivum, post-emergence, 240 h, postemergence
Procedure, shortened: as §2

[7] = tested on: ryegrass, Italian (Italian ryegrass, Lolium multiflorum); experiment: Test A postemergence; details: Lolium multiflorum, post-emergence, 240 h, postemergence
Procedure, shortened: as §2

[8] = tested on: ragweed (common ragweed, Ambrosia elatior); experiment: Test A postemergence; details: Ambrosia artemisiifolia, post-emergence, 240 h, postemergence
Procedure, shortened: as §2

[9] = tested on: giant foxtail (Setaria faberii); experiment: Test A postemergence; details: Setaria faberi, post-emergence, 240 h, postemergence
Procedure, shortened: as §2

[10] = tested on: barnyardgrass (Echinochloa crus-galli); experiment: Test A postemergence; details: Echinochloa crus-galli, post-emergence, 240 h, postemergence
Procedure, shortened: as §2

Kochia (Kochia scoparia) = experiment: Test A postemergence; details: Bassia scoparia, post-emergence, 240 h, postemergence
Procedure, shortened: as §2

[11] = tested on: Galium (catchweed bedstraw, Galium aparine); experiment: Test A postemergence; details: Galium, post-emergence, 240 h, postemergence
Procedure, shortened: as §2

[12] = tested on: pigweed (Amaranthus retroflexus); experiment: Test A preemergence; details: Amaranthus retroflexus, pre-emergence, 240 h, preemergence, 0 to 100 scale where 0 is no effect and 100 is complete control, read-out: Pigweed plant response rating

Cc1nc([C@H]2CNC(=O)[C@@H]2C(=O)Nc2cccc(F)c2F)cs1 [Compound 1180]
0%: pest or weed control at 250 g/ha (rice (Oryra sativa)) | pest or weed control at 250 g/ha [1] | pest or weed control at 250 g/ha [3] | pest or weed control at 125 g/ha ([4]; 125 g ai/ha, visual injury vs untreated controls after approx. 10 d, 0 = no effect, 100 = complete control, read-out: Blackgrass plant response rating (0 to 100 scale)) | pest or weed control at 500 g/ha ([4]; 500 g ai/ha, 0 to 100 scale, 0 is no effect, 100 is complete control, read-out: Blackgrass plant response rating) | pest or weed control at 125 g/ha ([5]; 125 g ai/ha, visual injury vs untreated controls after approx. 10 d, 0 = no effect, 100 = complete control, read-out: Pigweed plant response rating (0 to 100 scale)) | pest or weed control at 500 g/ha ([5]; 500 g ai/ha, 0 to 100 scale, 0 is no effect, 100 is complete control, read-out: Pigweed plant response rating) | plant injury at 125 g/ha (corn (Zea mays); 125 g ai/ha, visual injury vs untreated controls after approx. 10 d, 0 = no effect, 100 = complete control, read-out: Corn plant response rating (0 to 100 scale)) | plant injury at 500 g/ha (corn (Zea mays); 500 g ai/ha, 0 to 100 scale, 0 is no effect, 100 is complete control, read-out: Corn plant response rating) | plant injury at 125 g/ha ([6]; 125 g ai/ha, visual injury vs untreated controls after approx. 10 d, 0 = no effect, 100 = complete control, read-out: Wheat plant response rating (0 to 100 scale)) | plant injury at 500 g/ha ([6]; 500 g ai/ha, 0 to 100 scale, 0 is no effect, 100 is complete control, read-out: Wheat plant response rating) | pest or weed control at 125 g/ha ([7]; 125 g ai/ha, visual injury vs untreated controls after approx. 10 d, 0 = no effect, 100 = complete control, read-out: Ryegrass, Italian plant response rating (0 to 100 scale)) | pest or weed control at 500 g/ha ([7]; 500 g ai/ha, 0 to 100 scale, 0 is no effect, 100 is complete control, read-out: Ryegrass, Italian plant response rating) | pest or weed control at 125 g/ha ([8]; 125 g ai/ha, visual injury vs untreated controls after approx. 10 d, 0 = no effect, 100 = complete control, read-out: Ragweed plant response rating (0 to 100 scale)) | pest or weed control at 500 g/ha ([8]; 500 g ai/ha, 0 to 100 scale, 0 is no effect, 100 is complete control, read-out: Ragweed plant response rating) | pest or weed control at 125 g/ha ([9]; 125 g ai/ha, visual injury vs untreated controls after approx. 10 d, 0 = no effect, 100 = complete control, read-out: Foxtail, Giant plant response rating (0 to 100 scale)) | pest or weed control at 500 g/ha ([9]; 500 g ai/ha, 0 to 100 scale, 0 is no effect, 100 is complete control, read-out: Foxtail, Giant plant response rating) | pest or weed control at 125 g/ha ([10]; 125 g ai/ha, visual injury vs untreated controls after approx. 10 d, 0 = no effect, 100 = complete control, read-out: Barnyardgrass plant response rating (0 to 100 scale)) | pest or weed control at 500 g/ha ([10]; 500 g ai/ha, 0 to 100 scale, 0 is no effect, 100 is complete control, read-out: Barnyardgrass plant response rating) | pest or weed control at 125 g/ha (Kochia (Kochia scoparia); 125 g ai/ha, visual injury vs untreated controls after approx. 10 d, 0 = no effect, 100 = complete control, read-out: Kochia plant response rating (0 to 100 scale)) | pest or weed control at 500 g/ha (Kochia (Kochia scoparia); 500 g ai/ha, 0 to 100 scale, 0 is no effect, 100 is complete control, read-out: Kochia plant response rating) | pest or weed control at 125 g/ha ([11]; 125 g ai/ha, visual injury vs untreated controls after approx. 10 d, 0 = no effect, 100 = complete control, read-out: Galium plant response rating (0 to 100 scale)) | pest or weed control at 500 g/ha ([11]; 500 g ai/ha, 0 to 100 scale, 0 is no effect, 100 is complete control, read-out: Galium plant response rating) | pest or weed control at 125 g/ha ([12]; 125 g ai/ha, approx. 10 d) | pest or weed control at 500 g/ha ([12]; 500 g ai/ha)
85%: pest or weed control at 250 g/ha [2]
